Test results as given in patent US7473688B2, “Indolobenzazepine HCV NS5B inhibitors” (Bristol-Myers Squibb Company, priority 2005, dated 2009).

molecular target: T1, HCV NS5B (Hepatitis C virus genotype 1b, UniProt Q9WMX2); test: HCV NS5B RdRp enzyme assay (preincubation protocol); type: biochemical; conditions: Table 1, read-out: IC50*
T1 construct: The protein was expressed with an 18 amino acid C-terminal truncation to enhance the solubility; made in house; host or cells: E. coli BL21 (DE3), pET21a
T1 sequence (Q9WMX2 2420-2992): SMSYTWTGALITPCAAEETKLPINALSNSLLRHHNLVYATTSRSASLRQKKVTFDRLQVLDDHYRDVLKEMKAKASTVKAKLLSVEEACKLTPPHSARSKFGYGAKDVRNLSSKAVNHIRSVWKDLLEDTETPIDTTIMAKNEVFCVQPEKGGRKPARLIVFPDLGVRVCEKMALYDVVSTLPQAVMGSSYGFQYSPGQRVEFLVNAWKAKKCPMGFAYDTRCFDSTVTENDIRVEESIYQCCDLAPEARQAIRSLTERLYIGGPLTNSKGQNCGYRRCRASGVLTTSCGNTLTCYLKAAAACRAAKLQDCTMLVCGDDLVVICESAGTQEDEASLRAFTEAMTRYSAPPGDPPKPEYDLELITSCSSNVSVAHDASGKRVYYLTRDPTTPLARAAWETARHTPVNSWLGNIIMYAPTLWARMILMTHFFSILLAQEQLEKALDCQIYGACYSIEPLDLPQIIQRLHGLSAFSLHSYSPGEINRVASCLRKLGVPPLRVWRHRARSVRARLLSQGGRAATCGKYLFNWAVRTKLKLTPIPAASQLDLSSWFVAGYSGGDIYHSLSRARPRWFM
Protocol: HCV NS5B RdRp cloning, expression, and purification. The cDNA encoding the NS5B protein of HCV, genotype 1b, was cloned into the pET21a expression vector. The protein was expressed with an 18 amino acid C-terminal truncation to enhance the solubility. The E. coli competent cell line BL21 (DE3) was used for expression of the protein. Cultures were grown at 37° C. for ˜4 hours until the cultures reached an optical density of 2.0 at 600 nm. The cultures were cooled to 20° C. and induced with 1 mM IPTG. Fresh ampicillin was added to a final concentration of 50 μg/ml and the cells were grown overnight at 20° C.
Cell pellets (3L) were lysed for purification to yield 15-24 mgs of purified NS5B. The lysis buffer consisted of 20 mM Tris-HCl, pH 7.4, 500 mM NaCl, 0.5% triton X-100, 1 mM DTT, 1 mM EDTA, 20% glycerol, 0.5 mg/ml lysozyme, 10 mM MgCl2, 15 ug/ml deoxyribonuclease I, and Complete TM protease inhibitor tablets (Roche). After addition of the lysis buffer, frozen cell pellets were resuspended using a tissue homogenizer. To reduce the viscosity of the sample, aliquots of the lysate were sonicated on ice using a microtip attached to a Branson sonicator. The sonicated lysate was centrifuged at 100,000×g for 1 hr at 4° C. and filtered through a 0.2 μm filter unit (Corning).
The protein was purified using three sequential chromatography steps: Heparin sepharose CL-6B, polyU sepharose 4B, and Hitrap SP sepharose (Pharmacia). The chromatography buffers were identical to the lysis buffer but contained no lysozyme, deoxyribonuclease I, MgCl2 or protease inhibitor and the NaCl concentration of the buffer was adjusted according to the requirements for charging the protein onto the column. Each column was eluted with a NaCl gradient which varied in length from 5-50 column volumes depending on the column type. After the final chromatography step, the resulting purity of the enzyme is >90% based on SDS-PAGE analysis. The enzyme was aliquoted and stored at −80° C.
Standard HCV NS5B RdRp enzyme assay. HCV RdRp genotype 1b assays were run in a final volume of 60 μl in 96 well plates (Costar 3912). The assay buffer is composed of 20 mM Hepes, pH 7.5, 2.5 mM KCl, 2.5 mM MgCl2, 1 mM DTT, 1.6 U RNAse inhibitor (Promega N2515), 0.1 mg/ml BSA (Promega R3961), and 2% glycerol. All compounds were serially diluted (3-fold) in DMSO and diluted further in water such that the final concentration of DMSO in the assay was 2%. HCV RdRp genotype 1b enzyme was used at a final concentration of 28 nM. A polyA template was used at 6 nM, and a biotinylated oligo-dT12 primer was used at 180 nM final concentration. Template was obtained commercially (Amersham 27-4110). Biotinylated primer was prepared by Sigma Genosys. 3H-UTP was used at 0.6 μCi (0.29 μM total UTP). Reactions were initiated by the addition of enzyme, incubated at 30° C. for 60 min, and stopped by adding […] of 50 mM EDTA containing SPA beads (4 μg/μl, Amersham RPNQ 0007). Plates were read on a Packard Top Count NXT after >1 hr incubation at room temperature.
Modified HCV NS5B RdRp enzyme assay. A modified enzyme assay was performed essentially as described for the standard enzyme assay except for the following: The biotinylated oligo dT12 primer was precaptured on streptavidin-coated SPA beads by mixing primer and beads in assay buffer and incubating at room temperature for one hour. Unbound primer was removed after centrifugation. The primer-bound beads were resuspended in 20 mM Hepes buffer, pH 7.5 and used in the assay at final concentrations of […] primer and 0.67 μg/μl beads. Order of addition in the assay: Enzyme (14 nM) was added to diluted compound followed by the addition of a mixture of template (0.2 nM), 3H-UTP (0.6 μCi, 0.29 μM), and primer-bound beads, to initiate the reaction; concentrations given are final. Reactions were allowed to proceed for 4 hours at 30° C.
IC50 values for compounds were determined using seven different [I]. […]

| SMILES | IC50 |
| --- | --- |
| CN(C)S(=O)(=O)NC(=O)c1ccc2c(C3CCCCC3)c3n(c2c1)CC(C(=O)N1CCC(F)CC1)=Cc1ccccc1-3 [drawing 74] | 10 to 1000 nM |
| CON(C)S(=O)(=O)NC(=O)c1ccc2c(C3CCCCC3)c3n(c2c1)CC(C(=O)N1CCOCC1)=Cc1ccccc1-3 [drawing 90] | 10 to 1000 nM |
| CN(C)S(=O)(=O)NC(=O)c1ccc2c(C3CCCCC3)c3n(c2c1)CC(C(=O)N1CCC(N2CCOCC2)CC1)=Cc1cc(OCc2ccccc2)ccc1-3 [drawing 139] | 10 to 1000 nM |

same assay, conditions: Table 1a, read-out: IC50*

| SMILES | IC50 |
| --- | --- |
| O=C(O)c1ccc2c(C3CCCCC3)c3n(c2c1)CC(NC(=O)C1CCOCC1)Cc1ccccc1-3 (stereo not shown) | 10 to 1000 nM |
| O=C(NCc1nc2ccccc2[nH]1)c1ccc2c(C3CCCCC3)c3n(c2c1)CC(C(=O)N1CCC(N2CCOCC2)CC1)=Cc1ccccc1-3 | 10 to 1000 nM |
| COC(=O)[C@@H]1C[C@@H](O)CN1C(=O)C1=Cc2cc(OC)ccc2-c2c(C3CCCCC3)c3ccc(C(=O)NS(=O)(=O)N(C)C)cc3n2C1 | 10 to 1000 nM |
| COc1ccc2c(c1)C=C(C(=O)N1CCN(C(C)=O)CC1)Cn1c-2c(C2CCCCC2)c2ccc(C(=O)NS(=O)(=O)N(C)C)cc21 | 10 to 1000 nM |
| COc1ccc2c(c1)C=C(C(=O)N1C[C@H](O)C[C@H]1C(=O)Nc1ccc3c(C)cc(=O)oc3c1)Cn1c-2c(C2CCCCC2)c2ccc(C(=O)NS(=O)(=O)N(C)C)cc21 | 10 to 1000 nM |
| COc1ccc2c(c1)C=C(C(=O)N1CCN(C(=O)c3ccco3)CC1)Cn1c-2c(C2CCCCC2)c2ccc(C(=O)NS(=O)(=O)N(C)C)cc21 | 10 to 1000 nM |
| COc1ccc2c(c1)C=C(C(=O)N1CCN(c3ccccc3OC)CC1)Cn1c-2c(C2CCCCC2)c2ccc(C(=O)NS(=O)(=O)N(C)C)cc21 | 10 to 1000 nM |
| COc1ccc2c(c1)C=C(C(=O)N1CCN(C(=O)N(C)C)CC1)Cn1c-2c(C2CCCCC2)c2ccc(C(=O)NS(=O)(=O)N(C)C)cc21 | 10 to 1000 nM |
| COc1ccc2c(c1)C=C(C(=O)N1CCN(C(=O)N3CCCC3)CC1)Cn1c-2c(C2CCCCC2)c2ccc(C(=O)NS(=O)(=O)N(C)C)cc21 | 10 to 1000 nM |
| COc1ccc2c(c1)C=C(C(=O)N1CCN(C(=O)N3CCCCC3)CC1)Cn1c-2c(C2CCCCC2)c2ccc(C(=O)NS(=O)(=O)N(C)C)cc21 | 10 to 1000 nM |
| COc1ccc2c(c1)C=C(C(=O)N1CCC(O)(c3cccnc3)CC1)Cn1c-2c(C2CCCCC2)c2ccc(C(=O)NS(=O)(=O)N(C)C)cc21 | 10 to 1000 nM |
| COc1ccc2c(c1)C=C(C(=O)N1CCC3(CC1)OC(=O)c1ccccc13)Cn1c-2c(C2CCCCC2)c2ccc(C(=O)NS(=O)(=O)N(C)C)cc21 | 10 to 1000 nM |
| COC(=O)CNC(=O)CNC(=O)C1=Cc2cc(OC)ccc2-c2c(C3CCCCC3)c3ccc(C(=O)NS(=O)(=O)N(C)C)cc3n2C1 | 10 to 1000 nM |
| COc1ccc2c(c1)C=C(C(=O)N1CCN(C(=O)CO)CC1)Cn1c-2c(C2CCCCC2)c2ccc(C(=O)NS(=O)(=O)N(C)C)cc21 | 10 to 1000 nM |
| CN(C)S(=O)(=O)NC(=O)c1ccc2c(C3CCCCC3)c3n(c2c1)CC(NC(=O)C1CCOCC1)Cc1ccccc1-3 (stereo not shown) | 10 to 1000 nM |
| CN(C)S(=O)(=O)NC(=O)c1ccc2c(C3CCCCC3)c3n(c2c1)C[C@@H](NC(=O)N1CCOCC1)Cc1ccccc1-3 | 10 to 1000 nM |
| CN(C)S(=O)(=O)NC(=O)c1ccc2c(C3CCCCC3)c3n(c2c1)C[C@H](NC(=O)N1CCOCC1)Cc1ccccc1-3 | 10 to 1000 nM |
| COc1ccc2c(c1)C=C(C(=O)NCCNC(C)=O)Cn1c-2c(C2CCCCC2)c2ccc(C(=O)NS(=O)(=O)N(C)C)cc21 | 10 to 1000 nM |

| SMILES | IC50 |
| --- | --- |
| COc1ccc2c(c1)C=C(C(=O)N1CCC[C@H]1C(=O)N(C)C)Cn1c-2c(C2CCCCC2)c2ccc(C(=O)NS(=O)(=O)N(C)C)cc21 | 10 to 1000 nM |
| COc1ccc2c(c1)C=C(C(=O)N1CCC(Oc3ncccn3)CC1)Cn1c-2c(C2CCCCC2)c2ccc(C(=O)NS(=O)(=O)N(C)C)cc21 | 10 to 1000 nM |
| COc1ccc2c(c1)C=C(C(=O)N1CCN(c3nccs3)CC1)Cn1c-2c(C2CCCCC2)c2ccc(C(=O)NS(=O)(=O)N(C)C)cc21 | 10 to 1000 nM |
| COc1ccc2c(c1)C=C(C(=O)N1CCOC(c3ccccc3)C1)Cn1c-2c(C2CCCCC2)c2ccc(C(=O)NS(=O)(=O)N(C)C)cc21 (stereo not shown) | 10 to 1000 nM |
| COc1ccc2c(c1)C=C(C(=O)N1CCn3cnnc3C1)Cn1c-2c(C2CCCCC2)c2ccc(C(=O)NS(=O)(=O)N(C)C)cc21 | 10 to 1000 nM |
| COc1ccc2c(c1)C=C(C(=O)N1CCN(c3ncncn3)CC1)Cn1c-2c(C2CCCCC2)c2ccc(C(=O)NS(=O)(=O)N(C)C)cc21 | 10 to 1000 nM |
| COc1ccc2c(c1)C=C(C(=O)NCCN1C[C@@H](C)O[C@@H](C)C1)Cn1c-2c(C2CCCCC2)c2ccc(C(=O)NS(=O)(=O)N(C)C)cc21 | 10 to 1000 nM |
| COc1ccc2c(c1)C=C(C(=O)N(C)C1CCS(=O)(=O)C1)Cn1c-2c(C2CCCCC2)c2ccc(C(=O)NS(=O)(=O)N(C)C)cc21 (stereo not shown) | 10 to 1000 nM |
| COc1ccc2c(c1)C=C(C(=O)N1CCS(=O)(=O)CC1)Cn1c-2c(C2CCCCC2)c2ccc(C(=O)NS(=O)(=O)N(C)C)cc21 | 10 to 1000 nM |
| O=C(NCc1nnn[nH]1)c1ccc2c(C3CCCCC3)c3n(c2c1)CC(C(=O)N1CCC(N2CCOCC2)CC1)=Cc1ccccc1-3 | 10 to 1000 nM |
| O=C(NCc1ccccn1)c1ccc2c(C3CCCCC3)c3n(c2c1)CC(C(=O)N1CCC(N2CCOCC2)CC1)=Cc1ccccc1-3 | 10 to 1000 nM |
| O=C(NCc1cn2ccccc2n1)c1ccc2c(C3CCCCC3)c3n(c2c1)CC(C(=O)N1CCC(N2CCOCC2)CC1)=Cc1ccccc1-3 | 10 to 1000 nM |
| Cc1cnc(CNC(=O)c2ccc3c(C4CCCCC4)c4n(c3c2)CC(C(=O)N2CCC(N3CCOCC3)CC2)=Cc2ccccc2-4)cn1 | 10 to 1000 nM |
| C[C@@H]1CN(C(=O)C2=Cc3c(ccc4c3OCO4)-c3c(C4CCCCC4)c4ccc(C(=O)O)cc4n3C2)C[C@H](C)O1 | 10 to 1000 nM |
| COc1ccc2c(c1)C=C(C(=O)N1CCOC(CN3CCCC3)C1)Cn1c-2c(C2CCCCC2)c2ccc(C(=O)NS(=O)(=O)N(C)C)cc21 (stereo not shown) | 10 to 1000 nM |
| O=C(NCc1ccco1)c1ccc2c(C3CCCCC3)c3n(c2c1)CC(C(=O)N1CCC(N2CCOCC2)CC1)=Cc1ccccc1-3 | 10 to 1000 nM |
| O=C(NC[C@H]1CCCO1)c1ccc2c(C3CCCCC3)c3n(c2c1)CC(C(=O)N1CCC(N2CCOCC2)CC1)=Cc1ccccc1-3 | 10 to 1000 nM |

same assay, conditions: Table 1b, read-out: IC50*

| SMILES | IC50 |
| --- | --- |
| COC(=O)c1ccc2c(C3CCCCC3)c3n(c2c1)CC(C(=O)NCC=O)=Cc1cc(OC)ccc1-3 | 20 to 1000 nM |
| COc1ccc2c(c1)C=C(C(=O)N1C[C@H](CO)[C@@H](O)[C@H](O)C1)Cn1c-2c(C2CCCCC2)c2ccc(C(=O)NS(=O)(=O)N(C)C)cc21 | < 20 nM |
| COc1ccc2c(c1)C=C(C(=O)N(C)[C@H](C)C(=O)N(C)C)Cn1c-2c(C2CCCCC2)c2ccc(C(=O)NS(=O)(=O)N(C)C)cc21 | < 20 nM |
| COc1ccc2c(c1)C=C(C(=O)N(C)[C@H](C)C(=O)N1CCOCC1)Cn1c-2c(C2CCCCC2)c2ccc(C(=O)NS(=O)(=O)N(C)C)cc21 | < 20 nM |
| O=C(O)c1ccc2c(C3CCCCC3)c3n(c2c1)CC(C(=O)N1CCOC(CO)C1)=Cc1cc(F)ccc1-3 (stereo not shown) | 20 to 1000 nM |
| COC(=O)c1ccc2c(C3CCCCC3)c3n(c2c1)CC(C(=O)N1CCOC(CO)C1)=Cc1cc(F)ccc1-3 (stereo not shown) | 20 to 1000 nM |
| COC(=O)c1ccc2c(C3CCCCC3)c3n(c2c1)CC(C(=O)N[C@@H]1C2CCC(C)([C@@H]1O)C2(C)C)=Cc1cc(OC)ccc1-3 (stereo partly shown) | > 12500 nM |
| COc1ccc2c(c1)C=C(C(=O)N1C[C@@H](C)N(C(C)C)[C@@H](C)C1)Cn1c-2c(C2CCCCC2)c2ccc(C(=O)NS(=O)(=O)N(C)C)cc21 | 20 to 1000 nM |
